In patent publication US7056532B1, “Compositions for delivery of biological agents and methods for the preparation thereof” (Univ. Nebraska Bd. of Regents, priority 1997, dated 2006):

Assay: Binding isotherms of surfactants to block copolymer (ion-selective electrode)
Assay type: physicochemical
Details: FIG. 1, dodecyl- versus cetyl- substituent
Description: While not wishing to be bound by any particular theory, it is believed that the above-described surfactants and block copolymers of opposite charge form stable complexes due to cooperative binding. (See, e.g., Goddard, In Interactions of Surfactants with Polymers and Proteins. Goddard and Ananthapadmanabhan, Eds., pp. 171 et seq., CRC Press, Boca Raton, Ann Arbor, London, Tokyo, 1992). Cooperative binding occurs in the sense that binding of surfactant molecules to the block copolymer is enhanced by the presence of other molecules of the same or a different surfactant already bound to the same copolymer. According to the cooperative binding mechanism which is believed to underlie this invention, surfactant binds electrostatically to the oppositely charged P-type segments of the block copolymer to form supramolecular complexes. These complexes are cooperatively stabilized by the interactions of the hydrophobic parts of surfactant molecules bound to the same P-type segment with each other. Indeed, it appears that without these hydrophobic interactions, formation of the desired complex would not occur. FIG. 1 presents the binding isotherms for interaction of cetylpyridinium bromide and dodecylpyridinium bromide with the polyethylene oxide-block-poly(sodium methacrylate) block copolymer. […] This binding mechanism is, in particular, characteristic for surface active biological agents. […]

For `CCCCCCCCCCCC[n+]1ccccc1.[Br-]` [dodecylpyridinium bromide], the “stability of the complex with polyethylene oxide-block-poly(sodium methacrylate)” value was “decreases the stability of the complex more than ten-fold”.
